Consider 36 compounds from patent US20230192686A1, “1H-PYRROLO[2,3-B]PYRIDINES AND PREPARATION AND USES THEREOF” (BioSplice Therapeutics, Inc., priority 2021, published 2023).

The term EC50 denotes the concentration at which the effect is half-maximal.

Molecules are shown by their SMILES.

In the test the target is recombinant DYRK1A kinase (Homo sapiens, UniProt Q13627). The test is described as follows: DYRK1A kinase assay (Ser/Thr 18 peptide Z-lyte FRET). It counts as biochemical. As to conditions: DYRK1A kinase activity; 15 μM ATP, 4 μM Ser/Thr peptide 18, one hour at room temperature. In short, it runs like this: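 Recombinant DYRK1A at 0.25 μg/mL was incubated 1 h at room temperature with 15 μM ATP, 4 μM Ser/Thr 18 peptide and compound, in duplicate, 11-point series from 10 μM. Phosphorylation was read by Z-lyte FRET after 1 h protease development, as the coumarin/fluorescein emission ratio converted to % phosphorylation. IC50 by non-linear regression.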

Turning to `Cc1nc2c(F)cc(-c3c[nH]c4ncc(C(=O)Nc5cnn(C6CCN(C)CC6)c5)cc34)cc2n1C(C)C` [Compound 703, 3-(4-Fluoro-1-isopropyl-2-methyl-1H-benzo[d]imidazol-6-yl)-N-(1-(1-methylpiperidin-4-yl)-1H-pyrazol-4-yl)-1H-pyrrolo[2,3-b]pyridine-5-carboxamide], the EC50 came out at 3 nM. The value for `CN1CCN(C(=O)c2cnn3ccc(-c4c[nH]c5ncc(C(F)(F)F)cc45)cc23)CC1` [Compound 2050, (4-Methylpiperazin-1-yl)(5-(5-(trifluoromethyl)-1H-pyrrolo[2,3-b]pyridin-3-yl)pyrazolo[1,5-a]pyridin-3-yl)methanone] was 159 nM. As for `Cc1nc2c(F)cc(-c3c[nH]c4ncc(-c5ccccc5)cc34)cc2n1C(C)C` [Compound 913, 4-Fluoro-1-isopropyl-2-methyl-6-(5-phenyl-1H-pyrrolo[2,3-b]pyridin-3-yl)-1H-benzo[d]imidazole], the EC50 was found to be 4 nM. For the compound `Cc1cnc2[nH]cc(-c3ccc4nccn4c3)c2c1` [Compound 280, 6-(5-methyl-1H-pyrrolo[2,3-b]pyridin-3-yl)imidazo[1,2-a]pyridine], the EC50 worked out at 4 nM. On to `Cc1ccc2c(-c3cc(F)c4nc(C)n(C(C)C)c4c3)c[nH]c2n1` [Compound 1459, 4-Fluoro-1-isopropyl-2-methyl-6-(6-methyl-1H-pyrrolo[2,3-b]pyridin-3-yl)-1H-benzo[d]imidazole], for which the EC50 came to 4 nM. Regarding `CC1(C)CC(=O)c2ccc(-c3c[nH]c4ncccc34)cc2O1` [Compound 80, 2,2-Dimethyl-7-(1H-pyrrolo[2,3-b]pyridin-3-yl)chroman-4-one], the concentration for a half-maximal effect (EC50) is 31 nM.

As for `O=C(c1cnn2ccc(-c3c[nH]c4ncccc34)cc12)N1CC2CNCC2C1` (stereo not drawn) [Compound 63, (5-(1H-Pyrrolo[2,3-b]pyridin-3-yl)pyrazolo[1,5-a]pyridin-3-yl) (hexahydropyrrolo[3,4-c]pyrrol-2(1H)-yl)methanone], the EC50 is 5 nM. The value for `Cn1cc2cc(-c3c[nH]c4nc(C5CC5)ccc34)ccc2n1` [Compound 1495, 5-(6-Cyclopropyl-1H-pyrrolo[2,3-b]pyridin-3-yl)-2-methyl-2H-indazole] was 105 nM; that for `c1cnc2[nH]cc(-c3ccc4nc5n(c4n3)CCC5)c2c1` [Compound 28, 2-(1H-Pyrrolo[2,3-b]pyridin-3-yl)-7,8-dihydro-6H-pyrrolo [2′,1′:2,3]imidazo[4,5-b]pyridine] was 19 nM; that for `Cc1nc2c(F)cc(-c3c[nH]c4nc(C(C)C)ccc34)cc2n1C(C)C` [Compound 2045, 4-Fluoro-1-isopropyl-6-(6-isopropyl-1H-pyrrolo[2,3-b]pyridin-3-yl)-2-methyl-1H-benzo[d]imidazole] was 36 nM.

Consider `Cc1nc2c(F)cc(-c3c[nH]c4ncc(C(=O)Nc5ccc(N6CCN(C)CC6)nc5)cc34)cc2n1C(C)C` [Compound 787, 3-(4-Fluoro-1-isopropyl-2-methyl-1H-benzo[d]imidazol-6-yl)-N-(6-(4-methylpiperazin-1-yl)pyridin-3-yl)-1H-pyrrolo[2,3-b]pyridine-5-carboxamide], for which the EC50 was 3 nM. As to `Cc1nc2c(F)cc(-c3c[nH]c4ncccc34)cc2n1C1CCN(C)CC1` [Compound 24, 4-Fluoro-2-methyl-1-(1-methylpiperidin-4-yl)-6-(1H-pyrrolo[2,3-b]pyridin-3-yl)-1H-benzo[d]imidazole], the EC50 was found to be 1 nM. With `c1cnc2[nH]cc(-c3cc4ccncc4s3)c2c1` [Compound 5, 2-(1H-Pyrrolo[2,3-b]pyridin-3-yl)thieno[2,3-c]pyridine], the 50% effective concentration (EC50) turned out to be 10 nM.

With `CC1(C)CNC(=O)c2ccc(-c3c[nH]c4ncccc34)cc21` [Compound 82, 4,4-Dimethyl-6-(1H-pyrrolo[2,3-b]pyridin-3-yl)-3,4-dihydroisoquinolin-1(2H)-one], the EC50 came out at 6 nM.

For `CN1CCN(c2ncnc3ccc(-c4c[nH]c5ncccc45)cc23)CC1` [Compound 95, 4-(4-Methylpiperazin-1-yl)-6-(1H-pyrrolo[2,3-b]pyridin-3-yl) quinazoline], the EC50 was 2 nM. As for `CN1C2CCC1CN(C(=O)c1cnn3ccc(-c4c[nH]c5ncccc45)cc13)C2` [Compound 58, (5-(1H-Pyrrolo[2,3-b]pyridin-3-yl)pyrazolo[1,5-a]pyridin-3-yl)(8-methyl-3,8-diazabicyclo[3.2.1]octan-3-yl)methanone], the figure is 12 nM. Turning to `Cc1ccc2c(-c3ccc4c(c3)C(C)(C)NC4=O)c[nH]c2n1` [Compound 1481, 3,3-Dimethyl-5-(6-methyl-1H-pyrrolo[2,3-b]pyridin-3-yl)isoindolin-1-one], the EC50 was 57 nM. Consider `c1cnc2ccc(-c3c[nH]c4nccc(NCc5ccc(-n6ccnc6)nc5)c34)cc2c1` [Compound 2052, N-((6-(1H-Imidazol-1-yl)pyridin-3-yl)methyl)-3-(quinolin-6-yl)-1H-pyrrolo[2,3-b]pyridin-4-amine], for which the EC50 turned out to be 34 nM. For `Clc1ccc2c(-c3ccc4ncccc4c3)c[nH]c2n1` [Compound 1446, 6-(6-Chloro-1H-pyrrolo[2,3-b]pyridin-3-yl)quinoline], the EC50 came out at 11 nM. Consider `CN1CCC(NC(=O)c2ccc3c(-c4ccc5ncnn5c4)c[nH]c3n2)CC1` [Compound 2048, 3-([1,2,4]Triazolo[1,5-a]pyridin-6-yl)-N-(1-methylpiperidin-4-yl)-1H-pyrrolo[2,3-b]pyridine-6-carboxamide], for which the EC50 amounted to 2540 nM. Turning to `O=C(Nc1cncc(F)c1)c1cnc2[nH]cc(-c3ccc4c(c3)C3(CCNCC3)CC4=O)c2c1` [Compound 764, N-(5-fluoropyridin-3-yl)-3-(3-oxo-2,3-dihydrospiro[indene-1,4′-piperidin]-6-yl)-1H-pyrrolo[2,3-b]pyridine-5-carboxamide], the EC50 came out at 22 nM.

Consider `COc1cnc2[nH]cc(-c3ccn4ncc(C(=O)N5CCN(C)CC5)c4c3)c2c1` [Compound 2047, (5-(5-Methoxy-1H-pyrrolo[2,3-b]pyridin-3-yl)pyrazolo[1,5-a]pyridin-3-yl)(4-methylpiperazin-1-yl)methanone], for which the EC50 came to 32 nM. As for `c1cnc2[nH]cc(-c3cn4ccnc4cn3)c2c1` [Compound 20, 6-(1H-Pyrrolo[2,3-b]pyridin-3-yl)imidazo[1,2-a]pyrazine], the figure is 10 nM; as for `c1cn2cc(-c3c[nH]c4nc(C5CCC5)ccc34)ncc2n1` [Compound 2042, 6-(6-Cyclobutyl-1H-pyrrolo[2,3-b]pyridin-3-yl)imidazo[1,2-a]pyrazine], 345 nM. In the case of `CN1CCC(C(=O)Nc2ccc3c(-c4ccn5ncc(-c6cccnc6)c5c4)c[nH]c3n2)CC1` [Compound 1847, 1-Methyl-N-(3-(3-(pyridin-3-yl)pyrazolo[1,5-a]pyridin-5-yl)-1H-pyrrolo[2,3-b]pyridin-6-yl)piperidine-4-carboxamide], the EC50 came out at 1 nM. With `Cc1ccccc1-c1cnc2[nH]cc(-c3cc(F)c4nc(C)n(C(C)C)c4c3)c2c1` [Compound 955, 4-Fluoro-1-isopropyl-2-methyl-6-(5-(o-tolyl)-1H-pyrrolo[2,3-b]pyridin-3-yl)-1H-benzo[d]imidazole], the EC50 is 20 nM. Turning to `O=C(NC1CCN(C2CC2)CC1)c1cnn2ccc(-c3c[nH]c4ncccc34)cc12` [Compound 47, N-(1-Cyclopropylpiperidin-4-yl)-5-(1H-pyrrolo[2,3-b]pyridin-3-yl) pyrazolo[1,5-a]pyridine-3-carboxamide], the EC50 amounted to 2 nM. As to `CN1CCC(Oc2cnc3ccc(-c4c[nH]c5ncccc45)cc3n2)CC1` [Compound 91, 2-((1-Methylpiperidin-4-yl)oxy)-7-(1H-pyrrolo[2,3-b]pyridin-3-yl) quinoxaline], the EC50 was determined as 3 nM. Consider `O=C(Nc1ccc2c(-c3ccc4c(c3)C3(CCNCC3)CC4=O)c[nH]c2n1)c1ccncc1` [Compound 1898, N-(3-(3-oxo-2,3-dihydrospiro[indene-1,4′-piperidin]-6-yl)-1H-pyrrolo [2,3-b]pyridin-6-yl)isonicotinamide], for which the EC50 was 20 nM.

With `CN1CCN(C(=O)c2cnc3[nH]cc(-c4ccc5c(c4)OCCNC5=O)c3c2)CC1` [Compound 521, 8-(5-(4-Methylpiperazine-1-carbonyl)-1H-pyrrolo[2,3-b]pyridin-3-yl)-3,4-dihydrobenzo[f][1,4]oxazepin-5(2H)-one], the EC50 amounted to 9 nM. For `c1cncc(-c2cnn3ccc(-c4c[nH]c5ncccc45)cc23)c1` [Compound 38, 3-(3-(Pyridin-3-yl)pyrazolo[1,5-a]pyridin-5-yl)-1H-pyrrolo[2,3-b] pyridine], the concentration giving a half-maximal response (EC50) came to 2 nM. In the case of `CN1CCn2ncc(-c3cnc4[nH]cc(-c5ccc6ncncc6c5)c4c3)c2C1` [Compound 1154, 6-(5-(5-Methyl-4,5,6,7-tetrahydropyrazolo[1,5-a]pyrazin-3-yl)-1H-pyrrolo[2,3-b]pyridin-3-yl)quinazoline], the EC50 is 10 nM. As for `Cc1nc2c(F)cc(-c3c[nH]c4nc(CO)ccc34)cc2n1C(C)C` [Compound 1795, (3-(4-Fluoro-1-isopropyl-2-methyl-1H-benzo[d]imidazol-6-yl)-1H-pyrrolo[2,3-b]pyridin-6-yl)methanol], the EC50 was 8 nM.

As for `c1nc2ccc(-c3c[nH]c4nc(C5CC5)ccc34)cn2n1` [Compound 1505, 6-(6-Cyclopropyl-1H-pyrrolo[2,3-b]pyridin-3-yl)-[1,2,4]triazolo[1,5-a] pyridine], the EC50 was found to be 100 nM. As for `CN1CCC(NC(=O)c2cnn3ccc(-c4c[nH]c5nc(-c6cnn(C)c6)ccc45)cc23)CC1` [Compound 1976, 5-(6-(1-Methyl-1H-pyrazol-4-yl)-1H-pyrrolo[2,3-b]pyridin-3-yl)-N-(1-methylpiperidin-4-yl)pyrazolo[1,5-a]pyridine-3-carboxamide], the figure is 10 nM; as for `CN1CCN(c2ccc(CNc3ncnc4ccc(-c5c[nH]c6ncccc56)cc34)cn2)CC1` [Compound 104, N-((6-(4-Methylpiperazin-1-yl)pyridin-3-yl)methyl)-6-(1H-pyrrolo[2,3-b]pyridin-3-yl)quinazolin-4-amine], 11 nM.
